Results taken from patent publication US20230085307A1, “PYRIDAZINONE COMPOUND AND HERBICIDE” (NISSAN CHEMICAL CORPORATION, priority 2019, published 2023).

Experiments:
beet [1] = assay: Test Example 4: effect on crop by soil treatment (Table 19, symbol f); type: in vivo; conditions: amount of applied herbicide 320 g/ha
From the text: (§1) [Test Example 4] Herbicidal Effect Test by Soil Treatment
(§2) Sterilized diluvial soil was placed in a plastic box having a length of 21 cm, a width of 13 cm, and a depth of 7 cm. The seeds of each of southern crabgrass, green foxtail, barnyard grass, wild oat, blackgrass, Italian ryegrass, windgrass, velvetleaf, redroot pigweed, lambsquarters, chickweed, false cleavers, persian speedwell, corn, soybean, rice, wheat, beet, and rapeseed were sowed in a spot-like manner and covered with the soil having a thickness of about 1.5 cm. Subsequently, the emulsion agent of the compound of the present invention prepared according to Formulation Example 2 was diluted with water so as to achieve a predetermined herbicide amount, and the diluted emulsion agent was uniformly applied to the surface of the soil with a small-sized spray. The plastic box was placed in a greenhouse at 25° C. to 30° C. for growth of the plants. Three weeks after the herbicide application, the effect of the herbicide on each plant was evaluated according to the criteria of Test Example 1.

rapeseed [2] = assay: Test Example 4: effect on crop by soil treatment (Table 19, symbol g); type: in vivo; conditions: amount of applied herbicide 320 g/ha
From the text: as §1, §2

southern crabgrass = assay: Test Example 5: herbicidal effect by foliage application, plastic box (Table 20, symbol F); type: in vivo, southern crabgrass (Digitaria ciliaris); conditions: foliage application, 320 g/ha, evaluated three weeks after application
In short: (§3)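 Post-emergence foliar test in sterilized diluvial soil. Compound applied as water-diluted emulsion at a predetermined rate to 14-day-old plants; evaluation at three weeks.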

green foxtail = assay: Test Example 5: herbicidal effect by foliage application, plastic box (Table 20, symbol G); type: in vivo, green foxtail (Setaria viridis); conditions: foliage application, 320 g/ha, evaluated three weeks after application
In short: as §3

barnyard grass = assay: Test Example 5: herbicidal effect by foliage application, plastic box (Table 20, symbol H); type: in vivo, barnyard grass (Echinochloa crus-galli); conditions: foliage application, 320 g/ha, evaluated three weeks after application
In short: as §3

wild oat = assay: Test Example 5: herbicidal effect by foliage application, plastic box (Table 20, symbol I); type: in vivo, wild oat (Avena fatua); conditions: foliage application, 320 g/ha, evaluated three weeks after application
In short: as §3

blackgrass = assay: Test Example 5: herbicidal effect by foliage application, plastic box (Table 20, symbol J); type: in vivo, blackgrass (Alopecurus myosuroides); conditions: foliage application, 320 g/ha, evaluated three weeks after application
In short: as §3

Italian ryegrass = assay: Test Example 5: herbicidal effect by foliage application, plastic box (Table 20, symbol K); type: in vivo, Italian ryegrass (Lolium multiflorum); conditions: foliage application, 320 g/ha, evaluated three weeks after application
In short: as §3

windgrass = assay: Test Example 5: herbicidal effect by foliage application, plastic box (Table 20, symbol L); type: in vivo, windgrass (Apera spica-venti); conditions: foliage application, 320 g/ha, evaluated three weeks after application
In short: as §3

velvetleaf = assay: Test Example 5: herbicidal effect by foliage application, plastic box (Table 20, symbol M); type: in vivo, velvetleaf (Abutilon theophrasti); conditions: foliage application, 320 g/ha, evaluated three weeks after application
In short: as §3

redroot pigweed = assay: Test Example 5: herbicidal effect by foliage application, plastic box (Table 20, symbol N); type: in vivo, redroot pigweed (Amaranthus retroflexus); conditions: foliage application, 320 g/ha, evaluated three weeks after application
In short: as §3

lambsquarters = assay: Test Example 5: herbicidal effect by foliage application, plastic box (Table 20, symbol O); type: in vivo, lambsquarters (Chenopodium album); conditions: foliage application, 320 g/ha, evaluated three weeks after application
In short: as §3

chickweed = assay: Test Example 5: herbicidal effect by foliage application, plastic box (Table 20, symbol P); type: in vivo, common chickweed (Stellaria media); conditions: foliage application, 320 g/ha, evaluated three weeks after application
In short: as §3

persian speedwell = assay: Test Example 5: herbicidal effect by foliage application, plastic box (Table 20, symbol R); type: in vivo, Persian speedwell (Veronica persica); conditions: foliage application, 320 g/ha, evaluated three weeks after application
In short: as §3

corn = assay: Test Example 5: effect on crop by foliage application, plastic box (Table 20, symbol c); type: in vivo; conditions: 320 g/ha, evaluated three weeks after application
From the text: (§4) [Test Example 5] Herbicidal Effect Test by Foliage Application
as §2, with “Thereafter, the plants were grown in a greenhouse at 25° C. to 30° C. After 14-day growth of the plants,” for “Subsequently,”, “a foliage part” for “the surface of the soil”, “spray.” for “spray. The plastic box was placed in a greenhouse at 25° C. to 30° C. for growth of the plants.”

soybean = assay: Test Example 5: effect on crop by foliage application, plastic box (Table 20, symbol d); type: in vivo; conditions: 320 g/ha, evaluated three weeks after application
From the text: as §4
as §2, with “Thereafter, the plants were grown in a greenhouse at 25° C. to 30° C. After 14-day growth of the plants,” for “Subsequently,”, “a foliage part” for “the surface of the soil”, “spray.” for “spray. The plastic box was placed in a greenhouse at 25° C. to 30° C. for growth of the plants.”

wheat = assay: Test Example 5: effect on crop by foliage application, plastic box (Table 20, symbol e); type: in vivo; conditions: 320 g/ha, evaluated three weeks after application
From the text: as §4
as §2, with “Thereafter, the plants were grown in a greenhouse at 25° C. to 30° C. After 14-day growth of the plants,” for “Subsequently,”, “a foliage part” for “the surface of the soil”, “spray.” for “spray. The plastic box was placed in a greenhouse at 25° C. to 30° C. for growth of the plants.”

beet [3] = assay: Test Example 5: effect on crop by foliage application, plastic box (Table 20, symbol f); type: in vivo; conditions: 320 g/ha, evaluated three weeks after application
From the text: as §4
as §2, with “Thereafter, the plants were grown in a greenhouse at 25° C. to 30° C. After 14-day growth of the plants,” for “Subsequently,”, “a foliage part” for “the surface of the soil”, “spray.” for “spray. The plastic box was placed in a greenhouse at 25° C. to 30° C. for growth of the plants.”

rapeseed [4] = assay: Test Example 5: effect on crop by foliage application, plastic box (Table 20, symbol g); type: in vivo; conditions: 320 g/ha, evaluated three weeks after application
From the text: as §4
as §2, with “Thereafter, the plants were grown in a greenhouse at 25° C. to 30° C. After 14-day growth of the plants,” for “Subsequently,”, “a foliage part” for “the surface of the soil”, “spray.” for “spray. The plastic box was placed in a greenhouse at 25° C. to 30° C. for growth of the plants.”

COc1ccccc1-c1sc2ccc(C3CC3)cc2c1-c1c(O)c(C)nn(C)c1=O [Compound No. 2-160, 4-(5-cyclopropyl-2-(2-methoxyphenyl)benzo[b]thiophen-3-yl)-5-hydroxy-2,6-dimethylpyridazin-3(2H)-one]
f: beet, effect on crop rating (beet [1]): 0 (Herbicidal rate of 5% or less (almost no effect))
g: rapeseed, effect on crop rating (rapeseed [2]): 1 (Herbicidal rate of 5% or more and less than 20%)
herbicidal effect on F: southern crabgrass (criteria 0-5) (southern crabgrass): 0 (Herbicidal rate of 5% or less (almost no effect))
herbicidal effect on G: green foxtail (criteria 0-5) (green foxtail): 4 (Herbicidal rate of 70% or more and less than 90%)
herbicidal effect on H: barnyard grass (criteria 0-5) (barnyard grass): 4 (Herbicidal rate of 70% or more and less than 90%)
herbicidal effect on I: wild oat (criteria 0-5) (wild oat): 0 (Herbicidal rate of 5% or less (almost no effect))
herbicidal effect on J: blackgrass (criteria 0-5) (blackgrass): 4 (Herbicidal rate of 70% or more and less than 90%)
herbicidal effect on K: Italian ryegrass (criteria 0-5) (Italian ryegrass): 3 (Herbicidal rate of 40% or more and less than 70%)
herbicidal effect on L: windgrass (criteria 0-5) (windgrass): 5 (Herbicidal rate of 90% or more (almost completely withered))
herbicidal effect on M: velvetleaf (criteria 0-5) (velvetleaf): 4 (Herbicidal rate of 70% or more and less than 90%)
herbicidal effect on N: redroot pigweed (criteria 0-5) (redroot pigweed): 5 (Herbicidal rate of 90% or more (almost completely withered))
herbicidal effect on O: lambsquarters (criteria 0-5) (lambsquarters): 2 (Herbicidal rate of 20% or more and less than 40%)
herbicidal effect on P: chickweed (criteria 0-5) (chickweed): 5 (Herbicidal rate of 90% or more (almost completely withered))
herbicidal effect on R: persian speedwell (criteria 0-5) (persian speedwell): 5 (Herbicidal rate of 90% or more (almost completely withered))
effect on crop c: corn (criteria 0-5) (corn): 0 (Herbicidal rate of 5% or less (almost no effect))
effect on crop d: soybean (criteria 0-5) (soybean): 3 (Herbicidal rate of 40% or more and less than 70%)
effect on crop e: wheat (criteria 0-5) (wheat): 1 (Herbicidal rate of 5% or more and less than 20%)
effect on crop f: beet (criteria 0-5) (beet [3]): 5 (Herbicidal rate of 90% or more (almost completely withered))
effect on crop g: rapeseed (criteria 0-5) (rapeseed [4]): 5 (Herbicidal rate of 90% or more (almost completely withered))
melting point: 182 to 184 °C
